From patent publication US5466669A, “Immunostimulatory agent” (Morinaga Milk Industry Co., Ltd., priority 1993, dated 1995)

Tests used:
[1] = tested on: rat peritoneal mast cells; test: Test 2: histamine release from rat peritoneal mast cells induced by α-toxin-producing Staphylococcus aureus cells; type: cell-based; settings: for Histamine release (Relative %): S. aureus 121 about 1.0×10^8 cells per ml, control (saline) = 100
Protocol: This test was performed to study the activity of the peptide of the present invention to promote the release of histamine from rat peritoneal mast cells induced by α-toxin-producing Staphylococcus aureus cells.
Staphylococcus aureus 121, an α-toxin-producing strain, was cultured overnight in Brain Heart Infusion broth at 37° C. The bacterial cells were collected by centrifugation at 4000×g for 20 min, washed with phosphate-buffered saline, and suspended in the same buffer for use in the experiment. Rat peritoneal cells were prepared as in Test 1.
The same method as in Test 1 was used, except histamine release from the mast cells was induced by the addition of α-toxin-producing Staphylococcus aureus cells at a final concentration of about 1.0×10^8 cells per ml.

[2] = tested on: rat peritoneal mast cells; test: Test 1: histamine release from rat peritoneal mast cells induced by calcium ionophore A23187; type: cell-based; settings: for Histamine release (Relative %): A23187 5 μM, control (saline) = 100
Protocol: This test was performed to study the activity of the peptide of the present invention to promote the release of histamine from rat peritoneal mast cells induced by the calcium ionophore A23187.
Peritoneal cells were collected from Wistar rats after intraperitoneal injection of phosphate-buffered saline (consisting of 120 mM NaCl, 10 mM Na2 PO4, 3 mM KH2 PO4, pH 7.4). Their abdoments were massaged and the buffer containing the cells was recovered. The cells were centrifuged at 300×g for 15 min and washed twice with phosphate-buffered saline. The cells from several rats were pooled for use in the experiments.
Rat peritoneal cells containing about 1×10^5 mast cells per ml were used as the target cells. A 500 μl volume of the cell suspension was incubated with 100 μl volume of the test substance [purified peptide obtained by the method as in Example 1, or human lactoferrin (Sigma Chemical Co.), or bovine lactoferrin (Morinaga Milk industry Co.)] at 37° C. for 3O min. Thereafter, histamine release from the mast cells was induced by the addition of calcium ionophore A23187 (Sigma Chemical Co.) at a final concentration of 5 μM. After 10 min of incubation the cells were centrifuged at 300×g for 15 min and the supernatant was removed and deproteinized by the addition of 2 ml of HClO4 (2%). The deproteinized sample was then centrifuged at 2000×g for 20 min and the histamine content in the supernatant was determined by the fluorophotometric analyser technique (AutoAnalyzer: Technikon). Cells in the presence of phosphate-buffered saline served as control.

[3] = tested on: human polymorphonuclear neutrophils; test: Test 3: leukotriene release from human polymorphonuclear neutrophils induced by calcium ionophore A23187; type: cell-based; settings: for Leukotriene released (ng) B4 / Leukotriene released (ng) C4 / Leukotriene released (ng) 20-COOH / Leukotriene released (ng) 20-OH: A23187 5 μM; for Leukotriene released (ng) B4: saline control 12; for Leukotriene released (ng) C4: saline control 18; for Leukotriene released (ng) 20-COOH: saline control 31; for Leukotriene released (ng) 20-OH: saline control 55; for Leukotriene released (ng) (Total B4): sum of B4, 20-OH and 20-COOH, saline control 98
Protocol: This test was performed to study the activity of the peptide of the present invention to promote the release of leukotriene B4 from human polymorphonuclear neutrophils induced by the calcium ionophore A23187.
Human polymorphonuclear neutrophils were prepared by fractionation of leukocytes from heparinized blood of healthy donors on a Ficoll-metrizoategradient followed by dextran sedimentation. The cells were centrifuged at 300×g, and washed three times with phosphate-buffered saline, after which less than 2% of the platelets remained. Erythrocytes were removed by exposing the cells to hypotonic conditions. The purity of the polymorphonuclear neutrophil fraction used was greater than 97% as confirmed by light microscopy.
For analysis of leukotriene release, human neutrophils suspended in phosphate-buffered saline at approximately 1×10^7 cells per ml were used as the target cells. The cells were incubated for 30 min in the presence of test substance [(purified peptide obtained by the method as in Example 1, or human lactoferrin (Sigma Chemical Co.), or bovine lactoferrin (Morinaga Milk Industry Co.)]. Leukotriene release from the neutrophils was then induced by the addition of calcium ionophore A23187 (Sigma chemical Co.) at a final concentration of 5 μM. After 30 min, the supernatants of the stimulated cells were deproteinized by addition of 2 ml of methanol-acetonitrile (1:1) overlaid with nitrogen and frozen for 12 h at -70° C. After centrifugation at 1000×g for 15 min the supernatant was evaporated to dryness in a freeze dryer, suspended in 0.5 ml of methanol-water (30:70), overlaid with nitrogen, and stored overnight at -70° C. The samples were centrifuged at 1000×g and the supernatant was assayed for the presence of leukotrienes by high pressure liquid chromatography using a reverse-phase column of Nucleosil (C18; 5 μm particles) at a column temperature of 40° C. The solvent system was a mixture of phosphate buffer (17 mM K2 HPO4 containing 0.05% EDTA), acetonitrile, and methanol (50:30:20) adjusted to pH 5.0 with phosphoric acid. The absorbance at 280 nm of the column effluent was monitored and recorded. The concentration of each eluted leukotriene was determined from the peak area by means of a computing integrator. The leukotrienes were identified from their retention times with reference to known standards. The minimum detectable quantity was 1 ng in each instance.

peritoneal mast cells = settings: Theobald et al. 1987; cited from earlier work

Phe-Lys-Cys-Arg-Arg-Trp-Gln-Trp-Arg-Met-Lys-Lys-Leu-Gly-Ala-Pro-Ser-Ile-Thr-Cys-Val-Arg-Arg-Ala-Phe (FKCRRWQWRMKKLGAPSITCVRRAF; printed: Phe-Lys-Cys-Arg-Arg-Trp-Gln-Trp-Arg-Met-Lys-Lys-Leu-Gly-Ala-Pro-Ser-Ile-Thr-Cys-Val-Arg-Arg-Ala-Phe) [purified peptide]
Histamine release (Relative %) ([1]; 1 ppm test substance): 200 ± 60 Relative %
activity to promote the release of histamine from mast cells induced by α-toxin-producing Staphylococcus aureus cells (in words) ([1]; 1 to 100 ppm): has activity to promote the release of histamine
Histamine release (Relative %) ([1]; 10 ppm test substance): 250 ± 50 Relative %
Histamine release (Relative %) ([1]; 100 ppm test substance): 460 ± 240 Relative %
Histamine release (Relative %) ([2]; 1 ppm test substance): 135 ± 10 Relative %
activity to promote the release of histamine from mast cells induced by A23187 (in words) ([2]; 1 to 100 ppm): has activity to promote the release of histamine
Histamine release (Relative %) ([2]; 10 ppm test substance): 145 ± 15 Relative %
Histamine release (Relative %) ([2]; 100 ppm test substance): 175 ± 20 Relative %
Leukotriene released (ng) B4 ([3]; 1 ppm test substance): 12 ng
Leukotriene released (ng) C4 ([3]; 1 ppm test substance): 23 ng
Leukotriene released (ng) 20-COOH ([3]; 1 ppm test substance): 51 ng
Leukotriene released (ng) 20-OH ([3]; 1 ppm test substance): 70 ng
Leukotriene released (ng) (Total B4) ([3]; 1 ppm test substance): 133 ng
activity to promote the release of leukotriene B4 from polymorphonuclear neutrophils (in words) ([3]; 1 to 100 ppm): promotes the release of leukotriene B4
Leukotriene released (ng) B4 ([3]; 10 ppm test substance): 14 ng
Leukotriene released (ng) C4 ([3]; 10 ppm test substance): 17 ng
Leukotriene released (ng) 20-COOH ([3]; 10 ppm test substance): 61 ng
Leukotriene released (ng) 20-OH ([3]; 10 ppm test substance): 116 ng
Leukotriene released (ng) (Total B4) ([3]; 10 ppm test substance): 191 ng
Leukotriene released (ng) B4 ([3]; 100 ppm test substance): 18 ng
Leukotriene released (ng) C4 ([3]; 100 ppm test substance): 23 ng
Leukotriene released (ng) 20-COOH ([3]; 100 ppm test substance): 104 ng
Leukotriene released (ng) 20-OH ([3]; 100 ppm test substance): 162 ng
Leukotriene released (ng) (Total B4) ([3]; 100 ppm test substance): 284 ng

lactoferrin
effect on calcium ionophore-induced release of histamine from peritoneal mast cells (in words) (peritoneal mast cells): has activity to inhibit calcium ionophore-induced release of histamine
